Reference: US4202876A, “Investigating body function” (The Radiochemical Centre Limited, priority 1977, dated 1980)

Columns and labels:
[1] = Intravenous administration to humans with the object of adrenal visualisation; format: in vivo, human
Source text: It was surmised that 19-methyl-^75 Se selenocholesterol was being converted to analogues of bile salts in which a methylseleno group was attached to the C19 carbon atom.

[2] = Biliary collection of 75Se radioactivity after intravenous injection, bile-cannulated rabbit; format: in vivo
Procedure: A male rabbit (NZW×LOP; 4.8 kg) was anaesthetized with sodium pentobarbitone ("Sagatal"), intravenously injected. A tracheotomy was performed and into a jugular vein was inserted a cannula with a 3-way tap. The animal was ventilated by intermittent positive pressure and anaesthesia maintained by intravenous administration of pentobarbitone as required. A midline ventral incision was made in the abdominal wall and the liver reflected to reveal the gall bladder, cystic duct and the common bile duct. After ligation of the cystic duct the common bile duct was cannulated for the collection of bile.
After a period of stabilization 1 ml of a solution of 19-methyl-[^75 Se]selenocholesterol (0.01 mg; 12 mCi) in polysorbate/normal saline was injected via the jugular cannula. Bile was collected as a series of 15-minute samples in preweighed tubes. After collection each sample was weighed and counted for ^75 Se radioactivity. The flow of bile, initially at 3.4 ml/15 minutes, declined to 1.5 ml/15 minutes after 61/2 hours. During this period 56.65 g of bile was collected containing approximately 100 μCi of ^75 Se radioactivity (about 1 percent of the injected dose).

[3] = Whole-body excretion studies in rats after oral administration (whole-body counts, bi-exponential fit); format: in vivo, rat; conditions: for b (amplitude of second component) / c (constant; percentage predicted as never being excreted) / x (rate constant of first component) / y (rate constant of second component): Retention(t)=ae^-xt+be^-yt+c; for a (amplitude of first component, Retention(t)=ae^-xt+be^-yt+c): whole-body retention as % of initial counts, 6-8 days
Procedure: Whole-body excretion studies in rats over a period of 8 days after oral administration of compounds i to viii indicate that excretion is delayed with respect to a non-absorbable radioactive maker, ^131 I-polyvinylpyrollidone.
For each of the eight compounds under investigation, approximately 10-15 μCi was administered via an intragastric tube to rats. Whole-body counts were determined immediately after administration and at intervals during the following 6-8 days. A whole-body standard permitted corrections for radioactive decay and variations in counter efficiency.
Whole-body retention is expressed as a percentage of the counts determined immediately after administration.
Retention (t)=ae^-xt +be^-yt +c (1)

[4] = Tissue distribution studies in rats after oral administration; format: in vivo, rat; conditions: for whole body retention by tissue distribution (dissection): at the end of 8 days
Procedure: The pattern of tissue distribution is similar for all the compounds. At 20 hours the ^75 Se radioactivity is largely confined to the liver, gut and faeces; apart from compounds iii and iv less than 5 percent of the radioactivity is distributed among other organs.

[5] = Clinical whole-body counting of 75Se retention after oral administration; format: in vivo, human; conditions: for Retention of Selenium-75 Radioactivity: oral approx. 1 μCi
Procedure: Approximately 1 μCi of compound ii was given orally as a drink in water to four adult volunteers, two of them being normal active adult males, 35-50 years of age, and two who had received a total ileal resection more than 10 years previously. All were on a normal diet. Se-ii was administered between 10.00 am and 12 noon. Body radioactivity was then measured in a whole-body counter immediately after administering the ^75 Se-ii and subsequently at 48 hours and 7 days.

[6] = Biliary excretion studies in rats, oral mixture of 75Se-seleno bile acid and 14C-cholic acid; format: in vivo, rat
Procedure: Measurement of the ratio of the ^14 C/^75 Se radioactivity collected in a 24 hour bile sample to the ^14 C/^75 Se radioactivity administered orally gives an indication of the efficiency of absorption of the seleno bile acid as compared to ^14 C-cholic acid. Ideally, when these absorptions are the same the ratio would be 1, but as the efficiency of the adsorption seleno bile acid diminishes the ratio increases.

[7] = at 20 hours, relative to the other compounds

Row | SMILES | b (amplitude of second component) [3] | c (constant; percentage predicted as never being excreted) [3] | x (rate constant of first component) [3] | y (rate constant of second component) [3] | a (amplitude of first component, Retention(t)=ae^-xt+be^-yt+c) [3] | other results
1 | C[75Se]C[C@]12CC[C@H](O)CC1=CC[C@@H]1[C@@H]2CC[C@]2(C)[C@@H]([C@H](C)CCCC(C)C)CC[C@@H]12 [19-methyl-[^75 Se]selenocholesterol] |  |  |  |  |  | localisation of selenium-75 radioactivity [1]: concentrated in the enterohepatic system; metabolism compared with cholesterol [1]: appeared to parallel that of cholesterol; 75Se radioactivity collected in bile (of injected dose) ([2]; i.v. via jugular cannula, bile collected 6 1/2 hours, 390 min): about 1%; 75Se radioactivity collected in bile ([2]; i.v., 12 mCi injected, 56.65 g bile over 6 1/2 hours): approximately 100 μCi
2 | C[C@H](C[75Se]CC(=O)O)[C@H]1CC[C@H]2[C@@H]3CC[C@@H]4C[C@H](O)CC[C@]4(C)[C@H]3C[C@H](O)[C@]12C [Compound ii, 3α,12α-dihydroxy-22-(carboxymethyl-[^75 Se]seleno)-23,24-bisnor-5β-cholane] | 27.6% | 3.36% | 2.29 day⁻¹ | 0.65 day⁻¹ | 190% | 75Se radioactivity in the faeces [4, 7]: a very much small percentage of ^75 Se radioactivity in the faeces; 75Se radioactivity in the small bowel [4, 7]: a correspondingly larger proportion in the small bowel; Retention of Selenium-75 Radioactivity ([5]; Ileal resection (3), 0 h): 100%; Retention of Selenium-75 Radioactivity ([5]; Ileal resection (3), 48 hrs.): 26%; Retention of Selenium-75 Radioactivity ([5]; Ileal resection (3), 7 days): 7.5%; Retention of Selenium-75 Radioactivity ([5]; Ileal resection (4), 0 h, patient on drugs to slow bowel transfer): 100%; Retention of Selenium-75 Radioactivity ([5]; Ileal resection (4), 48 hrs., patient on drugs to slow bowel transfer): 80%; Retention of Selenium-75 Radioactivity ([5]; Ileal resection (4), 7 days, patient on drugs to slow bowel transfer): 9.5%; Retention of Selenium-75 Radioactivity ([5]; Normal (1), 0 h): 100%; Retention of Selenium-75 Radioactivity ([5]; Normal (1), 48 hrs.): 80%; Retention of Selenium-75 Radioactivity ([5]; Normal (1), 7 days): 31%; Retention of Selenium-75 Radioactivity ([5]; Normal (2), 0 h): 100%; Retention of Selenium-75 Radioactivity ([5]; Normal (2), 48 hrs.): 100%; Retention of Selenium-75 Radioactivity ([5]; Normal (2), 7 days): 27%; rate of elimination from the body ([5]; humans who have suffered an ileal resection): this rate of elimination is increased; rate of elimination from the body ([5]; normal humans, compared with rats): considerably slower than it is for rats
3 | C[C@H](CC[75Se]CCC(=O)O)[C@H]1CC[C@H]2[C@@H]3[C@H](O)C[C@@H]4C[C@H](O)CC[C@]4(C)[C@H]3CC[C@]12C [iii, 3α,7α-dihydroxy-23-(β-carboxyethyl-[^75 Se]seleno)-24-nor-5β-cholane] | 37.5% | 4.0% | 2.31 day⁻¹ | 0.53 day⁻¹ | 170% | ratio of 14C/75Se radioactivity in 24 hour bile sample to 14C/75Se administered orally ([6]; 24 h bile, 14C-cholic acid internal marker, 1 = absorption same as cholic acid): 54; efficiency of absorption ([6]; compared to 14C-cholic acid): very much reduced absorption
4 | C[C@H](CC[75Se]CCC(=O)O)[C@H]1CC[C@H]2[C@@H]3[C@H](O)C[C@@H]4C[C@H](O)CC[C@]4(C)[C@H]3C[C@H](O)[C@]12C [iv, 3α,7α,12α-trihydroxy-23-(β-carboxyethyl-[^75 Se]seleno)-24-nor-5β-cholane] | 42.5% | 15.5% | 2.77 day⁻¹ | 0.66 day⁻¹ | 260% | whole body retention by tissue distribution (dissection) [4]: ~5.5%; whole body retention by tissue distribution (dissection) ([4]; listed as tri-hydroxy compound): approximately 5.5%
5 | CC([75Se]CC(=O)O)[C@H]1CC[C@H]2[C@@H]3[C@H](O)C[C@@H]4C[C@H](O)CC[C@]4(C)[C@H]3C[C@H](O)[C@]12C (stereo partly drawn) [v, 3α,7α,12α-trihydroxy-20-(carboxymethyl-[^75 Se]seleno)-5β-pregnane] | 16.5% | 0.8% | 2.52 day⁻¹ | 0.38 day⁻¹ | 98% | 
6 | CC([75Se]CC(=O)NCC(=O)O)[C@H]1CC[C@H]2[C@@H]3[C@H](O)C[C@@H]4C[C@H](O)CC[C@]4(C)[C@H]3C[C@H](O)[C@]12C (some centres unmarked) [vi, Glyco-22-[^75 Se]selenacholic acid] | 7.2% | 0.58% | 1.54 day⁻¹ | 0.54 day⁻¹ | 221% | 
7 | C[C@H](CCC[75Se]CC(=O)O)[C@H]1CC[C@H]2[C@@H]3CC[C@@H]4C[C@H](O)CC[C@]4(C)[C@H]3CC[C@]12C [vii, 3α-hydroxy-24-(carboxymethyl-[^75 Se]seleno)-5β-cholane] | 11.8% | 2.85% | 2.29 day⁻¹ | 0.44 day⁻¹ | 203% | 
8 | C[C@H](CC[123Te]CC(=O)O)[C@H]1CC[C@H]2[C@@H]3CC[C@@H]4C[C@H](O)CC[C@]4(C)[C@H]3C[C@H](O)[C@]12C [viii, 3α,12α-dihydroxy-23-(carboxymethyl-[^123m Te]telluro)-24-nor-5β-cholane] | 6.3% | 1.3% | 2.26 day⁻¹ | 0.43 day⁻¹ | 173% | 
